From PMC5400565, “Real-time near-infrared fluorescence imaging using cRGD-ZW800-1 for intraoperative visualization of multiple cancer types” (Oncotarget, 2017)

Key:
Na+ channel (site 2) = test: Off-target screening (Eurofins Cerep), Na+ channel; assay type: binding; details: reference compound, format An
From the text: (§1) Off-target interactions are binding of tracers to other components on the cell surface than the actual target site. These non-specific interactions are often of low affinity and easily missed, but can have significant effects. We outsourced the screening for in vitro for off-target interactions of cRGD-ZW800-1 to Eurofins Cerep SA, Le bois l’Evêque, France. They assessed the percentage of inhibition of a reference compound in 44 selected targets, including G protein-coupled receptors (GPCRs), transporters, ion channels, nuclear receptors, kinases and other non-kinase enzymes. These targets were recommended by four major pharmaceutical companies. The complete list is included in Supplementary Table 1 of the Supplementary Data. Each assay was performed twice using 10 μM cRGD-ZW800-1 and a reference compound. Inhibition higher than 50% was considered to represent a significant effect of cRGD-ZW800-1. Results showing between 20% and 50% were considered weak to moderate effects, while lower than 20% was not considered significant and mostly attributable to variability of the signal around the control level.

[1] = biological target: T1, 5-hydroxytryptamine (serotonin) receptor 2B (5-HT2B) (Homo sapiens, UniProt P41595); test: Off-target screening (Eurofins Cerep), 5-HT2B; assay type: binding; details: reference compound, format H, Ag
T1 construct: Eurofins Cerep SA (contract screening)
From the text: as §1

KV channel = test: Off-target screening (Eurofins Cerep), KV channel; assay type: binding; details: reference compound, format An
From the text: as §1

[2] = human, in vivo, iv; cited from earlier work
From the text: Besides interacting with extracellular matrix proteins, integrin αvβ3 can also modulate intracellular pathways essential for COX-2 expression. The inhibition of COX-2 as shown in the in vitro off-target screening may be the result of binding cRGD-ZW800-1 to integrin αvβ3.

[3] = tested on: GABA channels BZD (central); test: Off-target screening (Eurofins Cerep), BZD (central); assay type: binding; details: reference compound, format Ag
From the text: as §1

Adrenergic α1A = biological target: T2, Adrenergic α1A (Homo sapiens, UniProt P35348); test: Off-target screening (Eurofins Cerep), α1A; assay type: binding; details: reference compound, format H, An
T2 construct: Eurofins Cerep SA (contract screening)
T2 sequence (P35348 1-466): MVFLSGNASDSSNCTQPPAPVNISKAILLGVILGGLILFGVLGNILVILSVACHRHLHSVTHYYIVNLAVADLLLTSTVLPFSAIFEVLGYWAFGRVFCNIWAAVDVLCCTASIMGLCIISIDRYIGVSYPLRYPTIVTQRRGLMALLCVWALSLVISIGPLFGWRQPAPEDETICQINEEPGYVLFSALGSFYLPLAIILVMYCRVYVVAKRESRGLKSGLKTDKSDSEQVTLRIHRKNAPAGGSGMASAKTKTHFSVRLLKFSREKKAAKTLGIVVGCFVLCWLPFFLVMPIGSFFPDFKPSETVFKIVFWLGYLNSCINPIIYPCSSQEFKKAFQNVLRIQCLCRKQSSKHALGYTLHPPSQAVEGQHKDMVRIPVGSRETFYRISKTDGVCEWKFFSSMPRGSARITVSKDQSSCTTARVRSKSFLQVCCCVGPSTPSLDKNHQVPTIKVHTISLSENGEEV
From the text: as §1

T1 sequence (P41595 whole entry): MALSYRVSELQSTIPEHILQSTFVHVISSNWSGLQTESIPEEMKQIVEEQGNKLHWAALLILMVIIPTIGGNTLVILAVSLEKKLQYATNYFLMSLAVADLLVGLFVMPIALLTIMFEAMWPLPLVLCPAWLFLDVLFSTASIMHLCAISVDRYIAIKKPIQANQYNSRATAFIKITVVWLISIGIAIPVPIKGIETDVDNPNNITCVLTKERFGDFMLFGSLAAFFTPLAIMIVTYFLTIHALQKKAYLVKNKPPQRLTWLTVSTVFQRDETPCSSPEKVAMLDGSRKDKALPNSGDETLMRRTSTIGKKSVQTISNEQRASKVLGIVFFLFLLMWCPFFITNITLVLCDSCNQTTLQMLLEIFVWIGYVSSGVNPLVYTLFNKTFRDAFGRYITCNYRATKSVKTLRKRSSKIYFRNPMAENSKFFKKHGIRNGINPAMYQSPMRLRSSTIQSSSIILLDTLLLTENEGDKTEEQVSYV

Which IC50 (Na+ channel (site 2)) does the source give for `COc1ccc(C(=O)O[C@H]2CC[C@@]3(C)[C@@H]4CC[C@H]5[C@]6(O)C[C@H](O)[C@@]7(O)[C@@H](CN8C[C@@H](C)CC[C@H]8[C@@]7(C)O)[C@]6(O)C[C@@]53O[C@]24O)cc1OC` [Veratridine, reference compound] here?
Its IC50 is 6800 nM.

For `COc1cc(CC(C)N)c(OC)cc1I` (racemic) [(±)DOI, reference compound], which IC50 [1] is on record?
Its IC50 is 4 nM.

For Alpha -dendrotoxin [reference compound], which IC50 (KV channel) is on record?
The IC50 was 0.23 nM.

For cilengitide, which side effects [2] is on record?
The side effects was “without serious side effects”.

For `CN1C(=O)CN=C(c2ccccc2)c2cc(Cl)ccc21` [Diazepam, reference compound], which IC50 [3] is on record?
The IC50 was 12 nM.

For `COc1cccc(OC)c1OCCNCC1COc2ccccc2O1` (stereo not drawn) [WB 4101, reference compound], which IC50 (Adrenergic α1A) is on record?
Its IC50 is 0.46 nM.
